Calls of active or inactive are those of the source. No cut-off for these calls is given here.
Columns and labels:
Rattus norvegicus [1] = assay: Antidiabetic activity in STZ-induced diabetic Wistar rat assessed as body weight at 2.5 mg/kg, po administered on day 7 post STZ challenge measured immediately post dosage (reference value: 330.7 +/- 9.2 g); format: functional
Rattus norvegicus [2] = assay: Antidiabetic activity in STZ-induced diabetic Wistar rat assessed as body weight at 2.5 mg/kg, po administered for 15 days post STZ challenge measured on day 21 (reference value: 330.7 +/- 9.2 g); format: functional
Rattus norvegicus [3] = assay: Antidiabetic activity in STZ-induced diabetic Wistar rat assessed as change in fasting blood glucose level at 2.5 mg/kg, po administered on day 7 post STZ challenge measured immediately post dosage by glucometry (reference value: 63.75 +/- 7.3 mg/dl); format: functional
Rattus norvegicus [4] = assay: Antidiabetic activity in STZ-induced diabetic Wistar rat assessed as change in fasting blood glucose level at 2.5 mg/kg, po administered for 7 days post STZ challenge measured on day 14 by glucometry (reference value: 63.75 +/- 7.3 mg/dl); format: functional
Rattus norvegicus [5] = assay: Antidiabetic activity in STZ-induced diabetic Wistar rat assessed as decrease in blood glucose level at 2.5 mg/kg, po administered for 15 days post STZ challenge measured on day 21 by glucometry relative to control; format: functional; design: scale not given: the % may be the effect or the level left
Rattus norvegicus [6] = assay: Antidiabetic activity in STZ-induced diabetic Wistar rat blood assessed as creatinine level at 2.5 mg/kg, po administered for 15 days (reference value: 0.56 +/- 0.03 mg/dl); format: functional
Rattus norvegicus [7] = assay: Antidiabetic activity in STZ-induced diabetic Wistar rat blood assessed as urea level at 2.5 mg/kg, po administered for 15 days (reference value: 62.98 +/- 6.21 mg/dl); format: functional
Rattus norvegicus [8] = assay: Antidiabetic activity in STZ-induced diabetic Wistar rat blood assessed as cholesterol level at 2.5 mg/kg, po administered for 15 days (reference value: 80.09 +/- 9.35 mg/dl); format: functional
Rattus norvegicus [9] = assay: Antidiabetic activity in STZ-induced diabetic Wistar rat blood assessed as HDL level at 2.5 mg/kg, po administered for 15 days (reference value: 36.31 +/- 0.51 mg/dl); format: functional
Rattus norvegicus [10] = assay: Antidiabetic activity in STZ-induced diabetic Wistar rat blood assessed as LDL level at 2.5 mg/kg, po administered for 15 days (reference value: 23.11 +/- 9.82 mg/dl); format: functional
Rattus norvegicus [11] = assay: Antioxidant activity in STZ-induced diabetic Wistar rat liver assessed as catalase level measured as H2O2 consumption per mg of protein at 2.5 mg/kg, po administered for 15 days (reference value: 68.9 +/- 11.1 microM/min); format: functional
Rattus norvegicus [12] = assay: Antioxidant activity in STZ-induced diabetic Wistar rat liver assessed as glutathione peroxidase level measured as NADPH consumption per mg of protein at 2.5 mg/kg, po administered for 15 days (reference value: 10 +/- 0.6 microM/min); format: functional
Rattus norvegicus [13] = assay: Antioxidant activity in STZ-induced diabetic Wistar rat liver assessed as SOD level measured per mg of protein at 2.5 mg/kg, po administered for 15 days by NBT reduction test (reference value: 0.22 +/- 0.06 microM/min); format: functional
Rattus norvegicus [14] = assay: Antidiabetic activity in STZ-induced diabetic Wistar rat liver assessed as effect on central vein architecture at 2.5 mg/kg, po administered for 15 days by hematoxylin/eosin staining based microscopy; format: functional, organism-based
Rattus norvegicus [15] = assay: Antidiabetic activity in STZ-induced diabetic Wistar rat assessed as effect on hepatocytes surrounding central vein architecture at 2.5 mg/kg, po administered for 15 days by hematoxylin/eosin staining based microscopy; format: functional, organism-based
Rattus norvegicus [16] = assay: Antidiabetic activity in STZ-induced diabetic Wistar rat assessed as increase in body weight at 2.5 mg/kg, po administered for 15 days post STZ challenge measured on day 21; format: functional
Rattus norvegicus [17] = assay: Antidiabetic activity in STZ-induced diabetic Wistar rat assessed as change in fasting blood glucose level at 2.5 mg/kg, po administered for 15 days post STZ challenge measured on day 21 by glucometry (reference value: 63.75 +/- 7.3 mg/dl); format: functional
Rattus norvegicus [18] = assay: Antidiabetic activity in STZ-induced diabetic Wistar rat assessed as increase in fasting blood glucose level at 2.5 mg/kg, po administered for 15 days post STZ challenge measured on day 21 by glucometry; format: functional
[19] = Toxicity in DBA/2J mouse assessed as mortality; conditions: in vivo
[20] = Mutagenicity in Salmonella typhimurium TA98 assessed as mutagenic index at 0.005 uM/plate after 48 hrs in presence of S9 fraction by Ames test relative to control; format: toxicity, subcellular; conditions: salmonella enterica subsp. enterica serovar typhimurium, s9, 48 h
[21] = Mutagenicity in Salmonella typhimurium TA100 assessed as mutagenic index at 0.005 uM/plate after 48 hrs in presence of S9 fraction by Ames test relative to control; format: toxicity, subcellular; conditions: salmonella enterica subsp. enterica serovar typhimurium, s9, 48 h
[22] = Mutagenicity in Salmonella typhimurium TA102 assessed as mutagenic index at 0.005 uM/plate after 48 hrs in presence of S9 fraction by Ames test relative to control; format: toxicity, subcellular; conditions: salmonella enterica subsp. enterica serovar typhimurium, s9, 48 h
Rattus norvegicus [23] = assay: Antidiabetic activity in STZ-induced diabetic albino Wistar rat assessed as increase in body weight at 100 mg/kg, po administered for 45 days relative to control; format: functional
[24] = Mutagenicity in Salmonella typhimurium TA98 assessed as mutagenic index at 0.19 uM/plate after 48 hrs in absence of S9 fraction by Ames test relative to control; format: toxicity; conditions: salmonella enterica subsp. enterica serovar typhimurium, s9, 48 h

Structure (SMILES): COc1ccc(Cl)cc1C(=O)NCCc1ccc(S(=O)(=O)NC(=O)NC2CCCCC2)cc1 [GLYBURIDE]
- Activity (Rattus norvegicus [1]): 341.4 g
- Activity (Rattus norvegicus [2]): 385.5 g
- Activity (Rattus norvegicus [3]): 211.7 mg/dL
- Activity (Rattus norvegicus [4]): 282.8 mg/dL
- Activity (Rattus norvegicus [5]): 56.6%
- Activity (Rattus norvegicus [6]): 0.62 mg/dL
- Activity (Rattus norvegicus [7]): 58.43 mg/dL
- Activity (Rattus norvegicus [8]): 70.64 mg/dL
- Activity (Rattus norvegicus [9]): 26.6 mg/dL
- Activity (Rattus norvegicus [10]): 21.71 mg/dL
- Activity (Rattus norvegicus [11]): 93.2 µM/min
- Activity (Rattus norvegicus [12]): 48.75 µM/min
- Activity (Rattus norvegicus [13]): 0.55 U/min
- Activity (Rattus norvegicus [14]): Active
- Activity (Rattus norvegicus [15]): Active
- Activity (Rattus norvegicus [16]): 54.8 g
- Activity (Rattus norvegicus [17]): 142 mg/dL
- Activity (Rattus norvegicus [18]): 78.25 mg/dL

Structure (SMILES): O=c1ccc2ccccc2o1 [COUMARIN]
- LD50 [19]: > 700 mg/kg

Structure (SMILES): Nc1ccc2cc3ccccc3cc2c1 [2-AMINOANTHRACENE]
- Ratio [20]: 54.1
- Ratio [21]: 19.1
- Ratio [22]: 3.5

Structure (SMILES): C[C@@H]1O[C@@H](OC[C@H]2O[C@@H](Oc3c(-c4ccc(O)c(O)c4)oc4cc(O)cc(O)c4c3=O)[C@H](O)[C@@H](O)[C@@H]2O)[C@H](O)[C@H](O)[C@H]1O [RUTIN]
- Activity (Rattus norvegicus [23]): 12.1%

Structure (SMILES): CC1=NN(c2ccc([N+](=O)[O-])cc2)C(=O)C1[N+](=O)[O-] (centres undefined)
- Ratio [24]: 27.3

Source: ChEMBL document CHEMBL4477224, “Antidiabetic effect, antioxidant activity, and toxicity of 3',4'-Di-O-acetyl-cis-khellactone in Streptozotocin-induced diabetic rats” (Bioorg Med Chem Lett, 2016)
